Read-outs that look alike come from different tables or passages of the source.

Usually IC50 stands for the concentration needed to halve the response being measured. As a reminder, the Tmax is the time at which the peak concentration occurs. A word on the Kp: it is tissue or fluid exposure divided by exposure in the circulation. Broadly, the inhibition is the share of the control response that was lost under treatment.

For one series, the target named is T1, human 12-lipoxygenase (Homo sapiens, UniProt P18054).
T1 sequence (P18054 1-663): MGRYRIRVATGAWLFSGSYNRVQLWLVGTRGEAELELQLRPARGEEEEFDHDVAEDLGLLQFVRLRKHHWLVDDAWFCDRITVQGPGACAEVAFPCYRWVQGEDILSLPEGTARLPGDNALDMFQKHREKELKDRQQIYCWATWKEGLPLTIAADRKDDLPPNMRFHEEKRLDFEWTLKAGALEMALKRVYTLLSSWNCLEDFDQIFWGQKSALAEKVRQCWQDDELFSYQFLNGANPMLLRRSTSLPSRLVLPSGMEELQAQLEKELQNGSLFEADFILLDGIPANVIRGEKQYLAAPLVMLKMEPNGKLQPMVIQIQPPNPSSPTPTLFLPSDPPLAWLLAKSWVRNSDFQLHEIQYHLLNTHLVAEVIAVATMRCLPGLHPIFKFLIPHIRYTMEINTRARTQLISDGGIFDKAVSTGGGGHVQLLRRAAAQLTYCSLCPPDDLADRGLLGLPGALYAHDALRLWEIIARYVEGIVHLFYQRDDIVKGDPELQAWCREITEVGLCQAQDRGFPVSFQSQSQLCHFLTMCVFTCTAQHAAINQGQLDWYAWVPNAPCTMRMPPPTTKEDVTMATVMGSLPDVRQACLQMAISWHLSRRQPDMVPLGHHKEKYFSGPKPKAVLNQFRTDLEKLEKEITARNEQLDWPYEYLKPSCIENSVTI
In words: human 12-lipoxygenase inhibition (12hLO) assay, absorbance at 234 nm. The series is classed as biochemical.

In a further series the target is T2, human 5-lipoxygenase (Homo sapiens, UniProt P09917).
T2 sequence (P09917 1-674): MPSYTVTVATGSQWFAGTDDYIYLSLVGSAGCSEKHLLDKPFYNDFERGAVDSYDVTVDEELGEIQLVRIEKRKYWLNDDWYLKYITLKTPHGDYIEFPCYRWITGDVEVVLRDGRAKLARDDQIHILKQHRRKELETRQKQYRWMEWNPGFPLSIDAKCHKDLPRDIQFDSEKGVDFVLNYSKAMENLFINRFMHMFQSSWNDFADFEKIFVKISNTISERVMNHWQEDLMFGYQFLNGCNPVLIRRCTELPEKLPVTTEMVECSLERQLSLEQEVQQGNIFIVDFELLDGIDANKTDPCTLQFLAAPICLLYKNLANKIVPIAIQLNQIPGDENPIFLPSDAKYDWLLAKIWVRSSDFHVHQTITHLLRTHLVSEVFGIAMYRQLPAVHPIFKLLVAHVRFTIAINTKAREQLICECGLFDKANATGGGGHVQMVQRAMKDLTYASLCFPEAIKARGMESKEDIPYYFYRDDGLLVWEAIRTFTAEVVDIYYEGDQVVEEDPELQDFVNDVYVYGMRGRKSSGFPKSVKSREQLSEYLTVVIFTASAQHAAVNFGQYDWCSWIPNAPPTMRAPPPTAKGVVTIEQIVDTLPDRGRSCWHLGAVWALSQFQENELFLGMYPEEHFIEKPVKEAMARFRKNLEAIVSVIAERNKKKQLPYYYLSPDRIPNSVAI
Briefly: 5hLO inhibition screen. The series is classed as biochemical. The settings on record: Table 2.

Series [1] can be described thus: aqueous kinetic solubility. The series is classed as physicochemical.
Another series concerns Caco-2. In words: Caco-2 permeability. Type of series: in vitro ADME. (Caco-2 cells form a polarised layer with tight junctions and transporters.)
A short description of series [2]: mouse liver microsome stability. The note with it: liver microsomes, read-out: mouse liver microsome stability (T1/2). Type of series: in vitro ADME. (Liver microsomes are vesicles of endoplasmic reticulum, rich in cytochrome P450 enzymes.)
A short description of another series: PBS buffer stability. The series is classed as physicochemical.
A further series in a line: mouse plasma stability. Type of series: in vitro ADME.
Series [3] can be described thus: in vivo PK, IP administration in CD1 mice. The note with it: IP 30 mg/kg.
The target of a further series is T3, human 15-lipoxygenase-2 (Homo sapiens, UniProt O15296).
T3 sequence (O15296 1-676): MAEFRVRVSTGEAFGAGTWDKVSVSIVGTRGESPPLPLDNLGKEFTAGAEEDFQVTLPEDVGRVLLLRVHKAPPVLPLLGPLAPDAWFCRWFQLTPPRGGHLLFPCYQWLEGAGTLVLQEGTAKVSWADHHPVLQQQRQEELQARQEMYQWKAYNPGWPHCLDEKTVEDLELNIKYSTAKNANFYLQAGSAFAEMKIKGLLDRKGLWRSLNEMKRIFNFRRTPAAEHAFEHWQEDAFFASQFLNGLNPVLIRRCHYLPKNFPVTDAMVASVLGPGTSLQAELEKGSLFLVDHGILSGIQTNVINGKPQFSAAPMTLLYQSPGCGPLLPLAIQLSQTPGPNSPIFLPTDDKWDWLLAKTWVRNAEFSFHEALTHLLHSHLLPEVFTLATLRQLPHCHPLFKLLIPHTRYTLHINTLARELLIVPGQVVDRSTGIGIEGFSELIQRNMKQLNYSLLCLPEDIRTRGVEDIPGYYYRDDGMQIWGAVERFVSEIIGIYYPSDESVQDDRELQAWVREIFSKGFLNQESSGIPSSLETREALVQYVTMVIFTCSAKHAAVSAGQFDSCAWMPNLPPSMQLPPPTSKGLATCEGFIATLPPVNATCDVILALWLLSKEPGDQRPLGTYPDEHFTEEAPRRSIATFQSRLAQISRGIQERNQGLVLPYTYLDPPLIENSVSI
Briefly: 15hLO-2 inhibition screen. The series is classed as biochemical. The note with it: Table 2.

The next series relates to Human islets. Briefly: gene expression in cytokine-stimulated human islets, Taqman real time PCR. Type of series: cell-based. The settings on record: TNF-α. Here is the method:
Human islets were incubated for 22 hours following stimulation with the inflammatory cytokines IFN-γ, TNF-α, and IL-1-β alone or in the presence of compound 1 or compound 9. Control islets were incubated for 22 hours in the absence of inflammatory cytokines or compounds. Following the incubation, gene expression for 12-LO, 15-LO, 5-LO, IL-12p40, and IFN-γ were determined using Taqman real time PCR.

The target in another series is T4, recombinant human cPLA2 (Homo sapiens, UniProt P47712).
T4 sequence (P47712 1-749): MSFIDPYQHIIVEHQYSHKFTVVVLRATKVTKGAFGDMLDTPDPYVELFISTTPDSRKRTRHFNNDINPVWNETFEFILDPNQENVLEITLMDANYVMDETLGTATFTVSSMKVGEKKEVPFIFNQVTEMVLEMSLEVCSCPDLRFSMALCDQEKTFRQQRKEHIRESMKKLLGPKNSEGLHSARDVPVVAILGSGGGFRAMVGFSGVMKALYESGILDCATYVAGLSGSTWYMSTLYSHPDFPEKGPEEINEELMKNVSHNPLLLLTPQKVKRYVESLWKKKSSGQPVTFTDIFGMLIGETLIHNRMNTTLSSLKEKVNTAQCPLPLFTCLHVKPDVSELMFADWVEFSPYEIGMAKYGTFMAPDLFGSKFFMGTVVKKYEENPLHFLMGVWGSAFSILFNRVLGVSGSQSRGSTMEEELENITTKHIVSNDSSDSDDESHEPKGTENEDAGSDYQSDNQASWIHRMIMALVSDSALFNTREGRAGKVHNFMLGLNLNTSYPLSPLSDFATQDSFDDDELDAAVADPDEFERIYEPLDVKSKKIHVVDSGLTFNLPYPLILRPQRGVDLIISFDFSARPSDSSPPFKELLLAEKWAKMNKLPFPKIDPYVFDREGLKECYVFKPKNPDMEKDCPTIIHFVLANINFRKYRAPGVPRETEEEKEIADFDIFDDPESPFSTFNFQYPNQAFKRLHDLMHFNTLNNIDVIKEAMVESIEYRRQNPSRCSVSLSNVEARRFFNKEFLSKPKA
Briefly: cPLA2 enzymatic activity assay. Type of series: biochemical. The note with it: 5 min of incubation, FIG. 8. Here is the method:
A., et al., Biochemistry, 2011, 50: 1731-1738 with the following differences. The inhibitors in solution in DMSO were added at a final concentration of 50 μM right before the recombinant enzyme was added to initiate the reaction. After 5 min of incubation, the products of reaction were analyzed, and the results depicted in FIG. 8.

Setting [4] is: relative to control islets, IFN-γ, IL-1-β stimulation, 22 hours.

For `CC(=O)NC(c1cccs1)c1cc(Br)c2cccnc2c1O` (single isomer, unassigned) [Compound 36, N-((5-bromo-8-hydroxyquinolin-7-yl)(thiophen-2-yl)methyl)acetamide], the “times more potent as an inhibitor of 12-lipoxygenase than the dextrorotatory enantiomer” value on human 12-lipoxygenase (levorotatory vs dextrorotatory enantiomer) is on record as “more than 58 times”. Moreover, the IC50 against human 5-lipoxygenase was > 250 µM. Further, in series [1], the “aqueous kinetic solubility (in words)” value is on record as “acceptable”. In addition, in the series with Caco-2, the “cell permeability (in words)” value is “good”. Also, the “Caco-2 (Papp 10^−6 m/s @ pH 7.4)” value in the series with Caco-2 (pH 7.4) is reported as 8.8 10^−6 m/s. Besides, in series [2], the half-life is < 10 min. Also, the “stability in PBS buffer (in words)” value in the series “PBS buffer stability” is on record as “excellent”. Also, the “PBS-pH 7.4 stability: % remaining after 48 h” value in “PBS buffer stability” (PBS pH 7.4, 48 h) is listed as 100%. Besides, the “stability in mouse plasma (in words)” value in “mouse plasma stability” is listed as “excellent”. Further, in [3], the “crossing of the blood-brain barrier” value was “does not efficiently cross the blood-brain barrier”. Besides, the “t1/2 (h) (brain)” value in [3] (brain) is on record as 1.7 h. Besides, in series [3] (plasma), the “t1/2 (h) (plasma)” value came to 3.5 h and the “tmax (h) [plasma]” value turned out to be 0.25 h. In addition, the time of peak concentration (Tmax) in series [3] (mouse, brain) is 30 min. Besides, the Kp at 24 h in series [3] (mouse, brain/plasma, average [b/p] ratio over 8 time points (24 h period)) is 0.01.

For the molecule `CCC(=O)NC(c1cccs1)c1ccc2cccnc2c1O` (stereo not shown) [Compound 6, N-((8-hydroxyquinolin-7-yl)(thiophen-2-yl)methyl)propionamide], on human 12-lipoxygenase, the “selectivity for inhibition of human 12-lipoxygenase as compared with human 5-lipoxygenase, 15-lipoxygenase-1 and 15-lipoxygenase-2” value is given as “exhibited selectivity”. Also, the IC50 at human 12-lipoxygenase (Table 2, read-out: IC50 (μM) 12hLO) is 3.4 µM; against human 5-lipoxygenase, > 150 µM; against human 15-lipoxygenase-2, > 150 µM.

As to `CCC(=O)NC(c1ccco1)c1cc(Cl)c2cccnc2c1O` (stereo not shown) [Compound 9, N-((5-chloro-8-hydroxyquinolin-7-yl)(furan-2-yl)methyl)propionamide], the “selectivity for inhibition of human 12-lipoxygenase as compared with human 5-lipoxygenase, 15-lipoxygenase-1 and 15-lipoxygenase-2” value on human 12-lipoxygenase is recorded as “exhibited selectivity”. At human 12-lipoxygenase (12hLO Inhibition, Table 1, read-out: IC50 (μM) [± SD μM]), the IC50 came out at 1 µM. For the same molecule, the 50% inhibitory concentration (IC50) against human 5-lipoxygenase was > 150 µM. Moreover, on human 15-lipoxygenase-2, the 50% inhibitory concentration (IC50) was > 150 µM. In the series on Human islets (induced by IFN-γ, IL-1-β), the “reduction in IFN-γ expression” value turned out to be 4 fold and the “reduction in IL-12p40 mRNA expression” value is given as 40 fold. Besides, in the series with Human islets (setting [4]), the “Change in Gene Expression 5-LO” value stood at 1, the “Change in Gene Expression 12-LO” value is listed as 12, the “Change in Gene Expression 15-LO” value is 4 and the “Change in Gene Expression IFN-γ” value worked out at 4. In addition, in the series on Human islets (setting [4]), the “Change in Gene Expression IL-12p40” value stood at 3.

Regarding `O=c1cc(-c2ccccc2)oc2cc(O)c(O)c(O)c12` [baicalein, reference compound], the inhibition at 50 µM at recombinant human cPLA2 is ~60%.

Source of the values: patent US20130096159A1, “INHIBITORS OF HUMAN 12-LIPOXYGENASE” (The United States of America, as represented the Secretary …, priority 2010, published 2013).
